Results published in ChEMBL document CHEMBL5338766, “X-ray Crystal Structure-Guided Discovery of Novel Indole Analogues as Colchicine-Binding Site Tubulin Inhibitors with Immune-Potentiating and Antitumor Effects against Melanoma” (J Med Chem, 2023).

Columns and labels:
[1] = Oral bioavailability in Sprague-Dawley rat at 20 mg/kg measured upto 12 hrs by UPLC-MS/ESI analysis; format: ADME, organism-based; settings: in vivo
HUVEC = assay: Disruption of vasculature in HUVEC cells assessed as interruption of capillary like networks incubated for 6 hrs by phase contrast microscopic analysis; format: functional, cell-based; settings: Homo sapiens, dose 0.5-5 nM
[2] = Tmax in Sprague-Dawley rat at 20 mg/kg, po measured upto 12 hrs by UPLC-MS/ESI analysis; format: ADME, organism-based; settings: in vivo
[3] = Apparent volume of distribution in Sprague-Dawley rat at 2 mg/kg, iv measured upto 12 hrs by UPLC-MS/ESI analysis; format: ADME, organism-based; settings: in vivo, read-out: Vz
HepG2 [4] = assay: Cell cycle arrest in human HepG2 cells assessed as accumulation of cells at […] at 5 nM incubated for 48 hrs by RNaseA/PI staining based flow cytometric analysis (reference value: 23.81%); format: functional
A2780/Taxol = assay: Antiproliferative activity against paclitaxel resistant human A2780/Taxol cells assessed as inhibition of cell proliferation incubated for 48 hrs by MTT assay; format: functional, cell-based
[5] = Resistance index, ratio of IC50 for antiproliferative activity against paclitaxel resistant human A549/TxR cells to IC50 for antiproliferative activity against parental human A549S cells; format: functional
Tubulin = assay: Binding affinity to tubulin (unknown origin) assessed as affinity constant by SPR analysis; format: protein-complex assay, Homo sapiens
[6] = Clearance in Sprague-Dawley rat at 20 mg/kg, po measured upto 12 hrs by UPLC-MS/ESI analysis; format: ADME, organism-based; settings: in vivo
[7] = Acute toxicity in C57 mouse assessed as survival rate at 64 mg/kg, po administered daily for 14 days relative to control; format: organism-based; settings: in vivo, time 14 day, read-out: Activity
HepG2 [8] = assay: Cell cycle arrest in human HepG2 cells assessed as accumulation of cells at S phase at 0.5 nM incubated for 48 hrs by RNaseA/PI staining based flow cytometric analysis (reference value: 23.81%); format: functional
[9] = Resistance index, ratio of IC50 for antiproliferative activity against paclitaxel resistant human A2780/Taxol cells to IC50 for antiproliferative activity against parental human A2780S cells; format: functional
HepG2 [10] = assay: Inhibition of colony formation in human HepG2 cells incubated for 24 hrs by crystal violet staining based analysis; format: functional, cell-based; settings: dose 0.5-5 nM
[11] = Toxicity in C57 mouse implanted with mouse B16-F10 cells assessed as pathological changes in heart at 2.5 mg/kg, ip administered every day for 14 days in the presence of NP19 by H&E staining based microscopic analysis; format: organism-based; settings: in vivo, 336 h, time 14 day
[12] = Toxicity in C57 mouse implanted with mouse B16-F10 cells assessed as pathological changes in kidney at 2.5 mg/kg, ip administered every day for 14 days in the presence of NP19 by H&E staining based microscopic analysis; format: organism-based; settings: in vivo, 336 h, time 14 day
B16-F10 [13] = assay: Antitumor immunity in C57 mouse implanted with mouse B16-F10 cells assessed as increase in CD3+ CD8+ cytotoxic T cells in tumor at 5 mg/kg, ip administered every day for 14 days by flow cytometric analysis (reference value: 0.340%); format: functional; settings: time 14 day
HepG2 [14] = assay: Cell cycle arrest in human HepG2 cells assessed as accumulation of cells at G2 phase at 0.5 nM incubated for 48 hrs by RNaseA/PI staining based flow cytometric analysis (reference value: 17.37%); format: functional
Tubulin (Homo sapiens) = Tubulin (Homo sapiens) (UniProt P68371+Q9H4B7+P0DPH7+P68366+Q13509+Q71U36+P04350+Q3ZCM7+P07437+P68363+Q9BQE3+Q6PEY2+Q13885+Q9BVA1+Q9BUF5); assay: Disruption of microtubule network in human HepG2 cells cytosol incubated for 12 hrs by DAPI staining based fluorescence microscopic analysis; format: subcellular; settings: dose 0.5-5 nM
[15] = Acute toxicity in C57 mouse assessed as lethal dose administered orally daily for 14 days; settings: in vivo, route po, time 14 day
HepG2 [16] = assay: Cell cycle arrest in human HepG2 cells assessed as accumulation of cells at G1 phase at 0.5 nM incubated for 48 hrs by RNaseA/PI staining based flow cytometric analysis (reference value: 56.11%); format: functional
HepG2 [17] = assay: Induction of apoptosis in human HepG2 cells assessed as viable cells at 0.5 nM incubated for 48 hrs by Annexin V-FITC/PI staining based flow cytometric analysis (reference value: 87.6%); format: functional; settings: read-out: Activity
A2780S = assay: Antiproliferative activity against parental human A2780S cells assessed as inhibition of cell proliferation incubated for 48 hrs by MTT assay; format: functional, cell-based
HepG2 [18] = assay: Induction of apoptosis in human HepG2 cells assessed as early apoptotic cells at 0.5 nM incubated for 48 hrs by Annexin V-FITC/PI staining based flow cytometric analysis (reference value: 7.01 %); format: functional
[19] = Acute toxicity in C57 mouse assessed as survival rate at 51.2 mg/kg, po administered daily for 14 days relative to control; format: organism-based; settings: in vivo, time 14 day, read-out: Activity
B16-F10 [20] = assay: Antiproliferative activity against mouse B16-F10 cells assessed as inhibition of cell proliferation incubated for 48 hrs by MTT assay; format: functional, cell-based; settings: B16-F10, 48 h
HepG2 [21] = assay: Cell cycle arrest in human HepG2 cells assessed as accumulation of cells at G2 phase at 1 nM incubated for 48 hrs by RNaseA/PI staining based flow cytometric analysis (reference value: 17.37%); format: functional
HepG2 [22] = assay: Cell cycle arrest in human HepG2 cells assessed as accumulation of cells at G2 phase at 5 nM incubated for 48 hrs by RNaseA/PI staining based flow cytometric analysis (reference value: 17.37%); format: functional
[23] = Apparent volume of distribution in Sprague-Dawley rat at 20 mg/kg, po measured upto 12 hrs by UPLC-MS/ESI analysis; format: ADME, organism-based; settings: in vivo
[24] = Antiproliferative activity against parental human A549S cells assessed as inhibition of cell proliferation incubated for 48 hrs by MTT assay; format: functional, cell-based
[25] = Cytotoxicity against HUVEC cells assessed as inhibition of cell proliferation incubated for 24 hrs by MTT assay; format: toxicity, cell-based; settings: human
HepG2 [26] = assay: Antimigratory activity in human HepG2 cells assessed as reduction in recovery area at 1 nM incubated for 24 hrs by wound healing assay (reference value: 65.84%); format: functional; design: scale not given: the % may be the effect or the level left
HepG2 [27] = assay: Induction of apoptosis in human HepG2 cells assessed as viable cells at 5 nM incubated for 48 hrs by Annexin V-FITC/PI staining based flow cytometric analysis (reference value: 87.6%); format: functional; settings: read-out: Activity
[28] = MRT (0 to infinity) in Sprague-Dawley rat at 20 mg/kg, po measured upto 12 hrs by UPLC-MS/ESI analysis; format: ADME, organism-based; settings: in vivo
HepG2 [29] = assay: Induction of apoptosis in human HepG2 cells assessed as necrotic cells at 5 nM incubated for 48 hrs by Annexin V-FITC/PI staining based flow cytometric analysis (reference value: 0.443%); format: functional
HepG2 [30] = assay: Cell cycle arrest in human HepG2 cells assessed as accumulation of cells at S phase at 1 nM incubated for 48 hrs by RNaseA/PI staining based flow cytometric analysis (reference value: 23.81%); format: functional
[31] = Acute toxicity in C57 mouse assessed as survival rate at 80 mg/kg, po administered daily for 14 days relative to control; format: organism-based; settings: in vivo, time 14 day, read-out: Activity

COc1cc(-c2nccc3[nH]c(-c4cccc5c4ccn5C)nc23)cc(OC)c1OC
bioavailability [1]: 11% | Activity (HUVEC): Dose-Dependent Effect | Tmax [2]: 0.92 h | Vd [3]: 1.08 L/kg | Activity (HepG2 [4]): 22.8% | IC50 (A2780/Taxol): 5.1 nM | Ratio IC50 [5]: 1.8 | Kd (Tubulin): 18300 nM | CL/F [6]: 107 mL/min/kg | survival at 336 h [7]: 60% | Activity (HepG2 [8]): 27.34% | Ratio IC50 [9]: 3.2 | inhibition (HepG2 [10]): Dose-Dependent Effect | Activity [11]: Non-Toxic | Activity [12]: Non-Toxic | Activity (B16-F10 [13]): 0.923% | Activity (HepG2 [14]): 20.73% | Activity (Tubulin (Homo sapiens)): Dose-Dependent Effect | LD50 at 336 h [15]: 66.9 mg/kg | Activity (HepG2 [16]): 49.61% | viability at 0.0005 µM (HepG2 [17]): 84.6% | IC50 (A2780S): 1.6 nM | Activity (HepG2 [18]): 8.59% | survival at 336 h [19]: 90% | IC50 (B16-F10 [20]): 2 nM | Activity (HepG2 [21]): 36.46% | Activity (HepG2 [22]): 55.89% | Vz [23]: 16.84 L/kg | IC50 [24]: 8.5 nM | IC50 at 24 h [25]: 62.1 nM | Activity (HepG2 [26]): 32.2% | viability at 0.005 µM (HepG2 [27]): 11% | MRT inf [28]: 3.24 h | Activity (HepG2 [29]): 0.201% | Activity (HepG2 [30]): 20.35% | survival at 336 h [31]: 20%
